# Measured values reported in US7579018B2, “Microbiological control in aqueous systems” (Albemarle Corporation, priority 2000, dated 2009).
# Experiment: Iodometric titration of clear saturated stock solutions
# Format: physicochemical
# Conditions: 1 gram powder slurried in 100 mL deionized water, stirred 20 minutes, filtered
# Protocol: Stock solutions of DBDMH and of BCDMH were prepared by slurrying 1 gram of the respective powders in 100 mL of deionized water. After stirring for 20 minutes, the insolubles were filtered to yield clear saturated stock solutions of DBDMH and BCDMH, respectively. Iodometric titration of the stock solutions using the potassium iodide-sodium thiosulfate method indicated the DBDMH solution contained 580 mg/L (as total chlorine), and the BCDMH solution contained 1100 mg/L (as total chlorine).
structure (smiles),measurement,value
"CC1(C)C(=O)N(Br)C(=O)N1Br [DBDMH, 1,3-dibromo-5,5-dimethylhydantoin]",halogen content of saturated stock solution (as total chlorine),580 mg/L
